Data on ten compounds can be found in US4461772A, “Additives for improving ruminant feed utilization” (SDS Biotech Corporation, priority 1983, dated 1984).

As usually defined, the inhibition is how much of the control response was suppressed. Low values mean a response near the control, high ones a response far below the control.

For one test, the system named is rumen fluid. The experiment in a line: In vitro rumen fluid incubation (18 h): volatile fatty acids and methane inhibition. The class given is cell-based, sheep. As to conditions: 39° C.; for C2 (acetate), Ratio Treated to Control / C3 (propionate), Ratio Treated to Control / C4 (butyrate), Ratio Treated to Control / Total VFA, Ratio Treated to Control: 50.0 ppm, pH 7.0; for inhibition at 50 ppm: Ovis aries, vs negative control. As for the experimental part:
Below is set forth the procedure followed for testing the compounds of the present invention in vitro. For these studies, rumen fistulated sheep were fed a concentrate diet which constituted 3 parts chopped corn and cob and 1 part alfalfa pellets.
1. Rumen fluid was removed from a fistulated sheep and strained through 4 layers of cheese cloth to remove large feed particles.
2. One part rumen fluid was added to 3 parts of modified McDougal's Artificial Saliva, the pH was adjusted to 7.0 and the saliva solution was prewarmed to 39° C. in a water bath and gassed with CO2.
(a) Modified McDougal Artificial Saliva composition:
To prepare (a), (i) 9.8 g NaHCO3, 11.7 g KHCO3, 5.1 g NaH2 PO4 and 4.08 g KH2 PO4 were diluted with two (2) liters of distilled H2 O; (ii) 20 mL of 100X salt solution was diluted to 1.33 l with tap H2 O; and (iii) mix (i) with (ii) to prepare the modified McDougal Artificial Saliva.
3. Add 0.01 g concentrate feed/1 mL of buffered rumen fluid (the buffered rumen fluid with concentrate should be stirred at all times to prevent the concentrate from settling).
4. Dispense 20 mL of buffered rumen fluid into 30 mL serum bottles that are being gassed with CO2. (A manifold that gases 12 bottles at a time was used.) The bottles should be in a 39° C. H2 O bath.
5. The test compounds, i.e., the compounds of the present invention, were first added to the bottles. After the addition of the buffered rumen fluid to all 12 bottles, the gassing cannulae were quickly removed and a butyl rubber stopper was inserted in each bottle. An aluminum seal was then placed on each bottle and crimped tight.
6. The sealed bottles were removed from the water bath, shaken and placed in a 39° C. incubator for 18 hours.
7. After the 18-hour incubation, the bottles were removed from the incubator and the head space gas was analyzed using a gas partitioner.
8. Four mL of rumen fluid was removed from each bottle for volatile fatty acid (VFA) analysis.
(a) The 4 mL sample was added to a centrifuge tube to which had previously been added 0.04 mL of 50 percent H2 SO4 and 1 mL 2-ethylbutyric acid (concentration 2 mL of 2-ethylbutyric acid/500 mL H2 O v/v).
(b) The mixture from (a) was centrifuged at 10000 xg for 20 minutes.
(c) The supernatant was removed and analyzed by gas-liquid chromatography. The above procedures were followed in all trials for testing the compounds of the present invention.

A further test relates to rumen. Kind of test: In vivo rumen VFA trial in rumen fistulated sheep (90 days). As to conditions: 90 day trial average. An excerpt:
Eight rumen fistulated sheep were used as test animals. Two sheep were alotted to each of three treatments and a control for each test. Group I was always the control group in each of the different trials. Groups II through IV had varying concentrations of compounds of the present invention added to the animals' feed. The feed ration in each trial constituted 3 parts chopped corn and cob and 1 part alfalfa pellets. Each sheep was offered 800 g daily of the feed in two equal portions. The particular compound and vitamin premix were mixed with chopped corn and cob. Any feed refusals were weighed back before each feeding and discarded. To prevent any mold growth, the feed was stored under refrigeration.
All animals in the various treatment groups were sampled for VFA's twice a week. Equal volumes of rumen fluid from each animal within a treatment were pooled for treatment VFA analysis. Fluid from individual animals was also analyzed for VFA. Individual animal VFA's within a treatment were averaged. This value was then averaged with pooled treatment VFA yielding the final treatment VFA value. All ratios and statistics were calculated using this final value. VFA's were calculated as the ratio treated to its respective pretreatment value. Each of the trials lasted for 90 days.

In test [1] the test system is propionate production in the rumen. As to conditions: oral administration to ruminants, Raun patents; cited from earlier work.
Where [2] appears, read: Table III, Group II, level 0.05 % of feed (approx. 60 ppm in rumen).
Where [3] appears, read: Table III, Group III, level 0.075 % of feed.
The mark [4] stands for this setting: Table III, Group IV, level 0.025 % of feed.
[5] abbreviates: Table II, Group II, level 0.01 % of feed.
Setting [6] is: Table II, Group III, level 0.05 % of feed (approx. 60 ppm in rumen).
[7] abbreviates: Table II, Group IV, level 0.025 % of feed.

As for `O=C(CCl)NCCc1nnn[nH]1`, in the test on rumen fluid, the “C2 (acetate), Ratio Treated to Control” value was found to be 0.91; the “C3 (propionate), Ratio Treated to Control” value turned out to be 1.16; the “C4 (butyrate), Ratio Treated to Control” value came to 1.05; the “Total VFA, Ratio Treated to Control” value is 1.02. Moreover, 50 ppm produced 4.9% inhibition with rumen fluid.

With `Cc1ccc(S(=O)(=O)OCCc2nnn[nH]2)cc1`, in the test on rumen fluid, the “C2 (acetate), Ratio Treated to Control” value is on record as 0.92; the “C3 (propionate), Ratio Treated to Control” value was determined as 1.23; the “C4 (butyrate), Ratio Treated to Control” value is reported as 0.95; the “Total VFA, Ratio Treated to Control” value is recorded as 1.07. In addition, in the test with rumen fluid, the inhibition at 50 ppm is 8%.

For the compound `CS(=O)(=O)NCCC#N` [CNCH2 CH2 NHSO2 CH3], in the test on rumen fluid, the “C2 (acetate), Ratio Treated to Control” value amounted to 0.7; the “C3 (propionate), Ratio Treated to Control” value was found to be 1.58; the “C4 (butyrate), Ratio Treated to Control” value is reported as 1.13; the “Total VFA, Ratio Treated to Control” value was 0.97. The compound also had an inhibition at 50 ppm with rumen fluid of 73.4%.

For `BrCCc1nnn[nH]1` [TCH2 CH2 Br], in the test with rumen fluid, the “C2 (acetate), Ratio Treated to Control” value is recorded as 0.73; the “C3 (propionate), Ratio Treated to Control” value worked out at 1.44; the “C4 (butyrate), Ratio Treated to Control” value turned out to be 1.25; the “Total VFA, Ratio Treated to Control” value is given as 0.91. This compound also had an inhibition at 50 ppm with rumen fluid of 91.3%.

With `ClCCc1nnn[nH]1` [TCH2 CH2 Cl, 5-(2-Chloroethyl)Tetrazole], in the test on rumen (setting [2]), the “C2 (acetate), Ratio of Treatment VFA to Pretreatment VFA” value (“C2 (acetate), Ratio of Treatment VFA” for short) is recorded as 0.97; the “C3 (propionate), Ratio of Treatment VFA to Pretreatment VFA” value (from here on “C3 (propionate), Ratio of Treatment VFA”) is on record as 1.06; the “C4 (butyrate), Ratio of Treatment VFA to Pretreatment VFA” value (“C4 (butyrate), Ratio of Treatment VFA” for short) is listed as 1.11; the “Total VFA, Ratio of Treatment VFA to Pretreatment VFA” value (shortened to “Total VFA, Ratio of Treatment VFA”) is 0.88. In addition, in the test on rumen (setting [3]), the “C2 (acetate), Ratio of Treatment VFA” value came out at 0.92; the “C3 (propionate), Ratio of Treatment VFA” value is given as 1.24; the “C4 (butyrate), Ratio of Treatment VFA” value was determined as 1.05; the “Total VFA, Ratio of Treatment VFA” value was 0.89. In the test on rumen (setting [4]), the “C2 (acetate), Ratio of Treatment VFA” value came to 0.97; the “C3 (propionate), Ratio of Treatment VFA” value amounted to 1.00; the “C4 (butyrate), Ratio of Treatment VFA” value is listed as 1.20; the “Total VFA, Ratio of Treatment VFA” value was 1.05. In the test on rumen fluid, the “C2 (acetate), Ratio Treated to Control” value is reported as 0.76; the “C3 (propionate), Ratio Treated to Control” value was determined as 1.48; the “C4 (butyrate), Ratio Treated to Control” value was found to be 0.92; the “Total VFA, Ratio Treated to Control” value is on record as 1.03. In the test with rumen fluid, this compound yielded an inhibition at 50 ppm of 74.6%.

Take `CS(=O)(=O)NCCc1nnn[nH]1` [TCH2 CH2 NHSO2 CH3]: in the test on rumen fluid, the “C2 (acetate), Ratio Treated to Control” value stood at 0.99; the “C3 (propionate), Ratio Treated to Control” value was 1.04; the “C4 (butyrate), Ratio Treated to Control” value amounted to 0.99; the “Total VFA, Ratio Treated to Control” value worked out at 1.02. This compound also had an inhibition at 50 ppm in the test with rumen fluid of 0.7%.

In the case of `ClCc1nnn[nH]1` [TCH2 Cl, 5-Chloromethyltetrazole], in the test on rumen (setting [5]), the “C2 (acetate), Ratio of Treatment VFA” value turned out to be 1.01; the “C3 (propionate), Ratio of Treatment VFA” value was 0.98; the “C4 (butyrate), Ratio of Treatment VFA” value amounted to 1.02; the “Total VFA, Ratio of Treatment VFA” value came out at 0.96. Besides, in the test with rumen (setting [6]), the “C2 (acetate), Ratio of Treatment VFA” value was 0.97; the “C3 (propionate), Ratio of Treatment VFA” value turned out to be 1.05; the “C4 (butyrate), Ratio of Treatment VFA” value worked out at 1.04; the “Total VFA, Ratio of Treatment VFA” value is 0.88. Further, in the test with rumen (setting [7]), the “C2 (acetate), Ratio of Treatment VFA” value was found to be 0.96; the “C3 (propionate), Ratio of Treatment VFA” value came to 1.10; the “C4 (butyrate), Ratio of Treatment VFA” value is reported as 1.05; the “Total VFA, Ratio of Treatment VFA” value was found to be 0.93. In the test on rumen fluid, the “C2 (acetate), Ratio Treated to Control” value is listed as 0.74; the “C3 (propionate), Ratio Treated to Control” value turned out to be 1.49; the “C4 (butyrate), Ratio Treated to Control” value stood at 0.95; the “Total VFA, Ratio Treated to Control” value is recorded as 0.96. In the test on rumen fluid, this compound registered an inhibition at 50 ppm of 96.8%.

On to `CO[C@H]1CC[C@@H](O[C@H]2C[C@H]([C@]3(C)CC[C@]4(C[C@H](O)[C@@H](C)[C@@H]([C@@H](C)/C=C(\C)C(=O)[C@H](C)C[C@H](C)C(=O)O)O4)O3)O[C@]3(O[C@@H]([C@H]4O[C@@](O)(CO)[C@H](C)C[C@@H]4C)C[C@@H]3C)[C@@H]2C)O[C@@H]1C` [dianemycin], for which, in test [1], the “propionate production (in words)” value is “propionate production could be increased”.

Take `CC[C@@]1([C@@H]2O[C@@H]([C@H]3O[C@@](O)(CO)[C@H](C)C[C@@H]3C)C[C@@H]2C)CC[C@H]([C@]2(C)CC[C@]3(C[C@H](O)[C@@H](C)[C@@H]([C@@H](C)[C@@H](OC)[C@H](C)C(=O)O)O3)O2)O1` [monensin]: in test [1], the “propionate production (in words)” value is recorded as “propionate production could be increased”.

In the case of `C=C(NC(=O)C(=C)NC(=O)c1csc(C2=N[C@@H]3c4csc(n4)[C@H]4NC(=O)c5csc(n5)[C@H]([C@](C)(O)[C@@H](C)O)NC(=O)[C@H]5CSC(=N5)/C(=C/C)NC(=O)[C@H]([C@@H](C)O)NC(=O)c5csc(n5)[C@]3(CC2)NC(=O)[C@H](C)NC(=O)C(=C)NC(=O)[C@H](C)NC(=O)[C@H]([C@@H](C)CC)N[C@@H]2C=Cc3c([C@H](C)O)cc(nc3[C@H]2O)C(=O)O[C@@H]4C)n1)C(N)=O` [thiostrepton], in test [1], the “propionate production (in words)” value is listed as “propionate production could be increased”.
